Measurements as given in the supplement of paper PMC10627819.

Key:
S. aureus DSM 20231 [1] = test: fitness (endpoint OD595 vs no drug) (fraction); higher = more growth
How it was run: (§1)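 Fitness was measured as bacterial growth in 384-well plates inoculated at OD595 0.01 (30 µl, or 55 µl for S. pneumoniae). Media were TSB, LB Lennox or CY, at 37 °C. OD595 was read every 30 min for 14 h and background-subtracted against the first reading. Fitness is OD595 at the transition into stationary phase divided by the robust mean of no-drug control wells, capped at 1.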

S. aureus Newman [2] = test: as above
How it was run: as §1

B. subtilis 168 = test: Bliss interaction score (quartile over a dose matrix) (fitness difference); higher = more antagonism (negative = synergy)
How it was run: (§2)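 OD595 was read at entry into stationary phase and expressed relative to the robust mean of the no-drug wells on the same plate, capped at 1. The resulting ratio is the fitness value. The Bliss score, observed fitness minus product-based expected fitness with single-drug fitness inferred from combinations, is summarised by quartiles over technical, biological and donor/recipient replicates.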

S. aureus DSM 20231 [3] = test: as above
How it was run: as §2

S. aureus Newman [4] = test: as above
How it was run: as §2

S. pneumoniae D39V = test: as above
How it was run: as §2
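Wherever Bliss interaction score (quartile over a dose matrix) is given: first quartile when negative (synergy) and third quartile when positive (antagonism).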

O=C(N[C@H](CO)[C@H](O)c1ccc([N+](=O)[O-])cc1)C(Cl)Cl [Chloramphenicol] + CCCCCCCCCC(=O)N[C@@H]1[C@H]([C@@H]([C@H](O[C@H]1OC2=C3C=C4C=C2OC5=C(C=C(C=C5)[C@H]([C@H]6C(=O)N[C@@H](C7=C(C(=CC(=C7)O)OC8[C@H]([C@H]([C@@H]([C@H](O8)CO)O)O)O)C9=C(C=CC(=C9)[C@H](C(=O)N6)NC(=O)[C@@H]4NC(=O)[C@@H]1C2=CC(=CC(=C2)OC2=C(C=CC(=C2)[C@H](C(=O)N[C@H](CC2=CC(=C(O3)C=C2)Cl)C(=O)N1)N)O)O)O)C(=O)O)O[C@H]1[C@@H]([C@H]([C@@H]([C@H](O1)CO)O)O)NC(=O)C)Cl)CO)O)O [Teicoplanin]
fitness, main component drawn
Settings	first compound 0.75 µg/mL	first compound 1.5 µg/mL	first compound 3 µg/mL
S. aureus DSM 20231 [1], partner 0.1562 µg/mL	0.813	0.638	0.129
S. aureus DSM 20231 [1], partner 0.3125 µg/mL	0.804	–	0.141
S. aureus DSM 20231 [1], partner 0.625 µg/mL	0.915	0.739	0.149
S. aureus Newman [2], partner 0.1562 µg/mL	0.865	0.666	–
S. aureus Newman [2], partner 0.3125 µg/mL	0.876	0.679	0.112
S. aureus Newman [2], partner 0.625 µg/mL	0.842	0.725	0.13

fitness, S. aureus Newman [2], one replicate, main component drawn
Settings	first compound 0.75 µg/mL	first compound 1.5 µg/mL	first compound 3 µg/mL
partner 0.62 µg/mL	0.876	0.634	0.256
partner 1.24 µg/mL	0.872	0.578	0.191
partner 2.48 µg/mL	0.584	0.512	–

main component drawn
Settings	Bliss interaction score
B. subtilis 168	-0.0728
S. aureus DSM 20231 [3]	0.143
S. aureus Newman [4]	0.151
S. pneumoniae D39V	-0.0708

O=C(N[C@H](CO)[C@H](O)c1ccc([N+](=O)[O-])cc1)C(Cl)Cl [Chloramphenicol] + CCN(CC)CCOC(=O)c1ccc(N)cc1 [Procaine]
fitness
Settings	partner 85.5 µg/mL	partner 171 µg/mL	partner 342 µg/mL
S. aureus DSM 20231 [1], first compound 0.75 µg/mL	0.675	–	0.753
S. aureus DSM 20231 [1], first compound 1.5 µg/mL	0.516	0.57	0.538
S. aureus DSM 20231 [1], first compound 3 µg/mL	0.0915	0.0967	0.0943
S. aureus Newman [2], first compound 0.75 µg/mL	0.783	0.787	0.793
S. aureus Newman [2], first compound 1.5 µg/mL	0.531	0.559	0.577

Settings	Bliss interaction score
B. subtilis 168	-0.0897
S. aureus DSM 20231 [3]	-0.0791
S. aureus Newman [4]	0.0594
S. pneumoniae D39V	-0.0498

O=C(N[C@H](CO)[C@H](O)c1ccc([N+](=O)[O-])cc1)C(Cl)Cl [Chloramphenicol] + CN1C2=CC=CC=C2N=C3C1=CC=CC3=O [Pyocyanin]
fitness
Settings	first compound 0.75 µg/mL	first compound 1.5 µg/mL	first compound 3 µg/mL
S. aureus DSM 20231 [1], partner 1.25 µg/mL	0.645	–	0.0788
S. aureus DSM 20231 [1], partner 2.5 µg/mL	–	0.321	–
S. aureus DSM 20231 [1], partner 5 µg/mL	–	0.332	0.0653
S. aureus Newman [2], partner 1.25 µg/mL	0.741	0.5	0.174
S. aureus Newman [2], partner 2.5 µg/mL	0.725	0.41	0.137
S. aureus Newman [2], partner 5 µg/mL	0.333	0.173	0.0578

Settings	Bliss interaction score
B. subtilis 168	0.049
S. aureus DSM 20231 [3]	-0.0896
S. aureus Newman [4]	-0.0632
S. pneumoniae D39V	0.0521

O=C(N[C@H](CO)[C@H](O)c1ccc([N+](=O)[O-])cc1)C(Cl)Cl [Chloramphenicol] + CN(N=O)C(=O)N[C@@H](C=O)[C@@H](O)[C@H](O)[C@H](O)CO [Streptozotocin]
fitness
Settings	first compound 0.75 µg/mL	first compound 1.5 µg/mL	first compound 3 µg/mL
S. aureus DSM 20231 [1], partner 0.15 µg/mL	0.677	0.481	0.104
S. aureus DSM 20231 [1], partner 0.3 µg/mL	0.603	0.46	0.1
S. aureus DSM 20231 [1], partner 0.6 µg/mL	0.616	0.385	0.0772
S. aureus Newman [2], partner 0.15 µg/mL	0.705	0.464	–
S. aureus Newman [2], partner 0.3 µg/mL	0.605	0.402	0.0999
S. aureus Newman [2], partner 0.6 µg/mL	0.47	0.295	0.0766

Settings	Bliss interaction score
B. subtilis 168	0.0462
S. aureus DSM 20231 [3]	-0.0514
S. aureus Newman [4]	0.0386
S. pneumoniae D39V	-0.0846

O=C(N[C@H](CO)[C@H](O)c1ccc([N+](=O)[O-])cc1)C(Cl)Cl [Chloramphenicol] + CN[C@@H]1[C@H](O)[C@H](NC)[C@H]2O[C@@]3(O)C(=O)C[C@@H](C)O[C@H]3O[C@@H]2[C@H]1O [Spectinomycin]
fitness
Settings	first compound 0.75 µg/mL	first compound 1.5 µg/mL	first compound 3 µg/mL
S. aureus DSM 20231 [1], partner 4 µg/mL	0.556	0.539	0.12
S. aureus DSM 20231 [1], partner 8 µg/mL	0.665	0.511	0.117
S. aureus DSM 20231 [1], partner 16 µg/mL	0.657	0.376	0.15
S. aureus Newman [2], partner 4 µg/mL	0.725	0.441	0.207
S. aureus Newman [2], partner 8 µg/mL	0.722	0.42	0.172
S. aureus Newman [2], partner 16 µg/mL	–	–	0.0732

fitness, one replicate
Settings	first compound 0.75 µg/mL	first compound 1.5 µg/mL	first compound 3 µg/mL
S. aureus DSM 20231 [1], partner 32 µg/mL	0.493	0.259	0.0743
S. aureus DSM 20231 [1], partner 64 µg/mL	0.0559	0.0436	0.0235
S. aureus Newman [2], partner 32 µg/mL	0.155	0.0442	0.0229
S. aureus Newman [2], partner 64 µg/mL	0.0289	0.0929	0.0827

Settings	Bliss interaction score
B. subtilis 168	-0.0556
S. aureus DSM 20231 [3]	-0.0533
S. aureus Newman [4]	-0.107
S. pneumoniae D39V	-0.0595

O=C(N[C@H](CO)[C@H](O)c1ccc([N+](=O)[O-])cc1)C(Cl)Cl [Chloramphenicol] + CN[C@H](CC(C)C)C(=O)N[C@H]1C(=O)N[C@@H](CC(N)=O)C(=O)N[C@H]2C(=O)N[C@H]3C(=O)N[C@H](C(=O)N[C@H](C(=O)O)c4cc(O)cc(O)c4-c4cc3ccc4O)[C@H](O)c3ccc(c(Cl)c3)Oc3cc2cc(c3O[C@@H]2O[C@H](CO)[C@@H](O)[C@H](O)[C@H]2O[C@H]2C[C@](C)(N)[C@H](O)[C@H](C)O2)Oc2ccc(cc2Cl)[C@H]1O [Vancomycin]
fitness
Settings	first compound 0.75 µg/mL	first compound 1.5 µg/mL	first compound 3 µg/mL
S. aureus DSM 20231 [1], partner 0.1875 µg/mL	0.669	0.608	0.165
S. aureus DSM 20231 [1], partner 0.375 µg/mL	0.7	0.654	0.142
S. aureus DSM 20231 [1], partner 0.75 µg/mL	–	0.652	0.15
S. aureus Newman [2], partner 0.1875 µg/mL	0.874	–	–
S. aureus Newman [2], partner 0.375 µg/mL	0.877	0.607	–
S. aureus Newman [2], partner 0.75 µg/mL	0.836	0.634	0.23

Settings	Bliss interaction score
B. subtilis 168	-0.0535
S. aureus DSM 20231 [3]	0.07
S. aureus Newman [4]	0.079
S. pneumoniae D39V	-0.0896

O=C(N[C@H](CO)[C@H](O)c1ccc([N+](=O)[O-])cc1)C(Cl)Cl [Chloramphenicol] + COc1c(N2C[C@@H]3CCCN[C@@H]3C2)c(F)cc2c(=O)c(C(=O)O)cn(C3CC3)c12 [Moxifloxacin]
fitness
Settings	first compound 0.75 µg/mL	first compound 1.5 µg/mL	first compound 3 µg/mL
S. aureus DSM 20231 [1], partner 0.0075 µg/mL	0.578	0.633	–
S. aureus DSM 20231 [1], partner 0.015 µg/mL	0.714	0.636	0.113
S. aureus DSM 20231 [1], partner 0.03 µg/mL	0.613	0.562	0.0861
S. aureus Newman [2], partner 0.0075 µg/mL	0.738	0.566	0.214
S. aureus Newman [2], partner 0.015 µg/mL	0.647	0.487	0.166
S. aureus Newman [2], partner 0.03 µg/mL	–	0.364	–

fitness, S. aureus DSM 20231 [1], one replicate
Settings	first compound 0.75 µg/mL	first compound 1.5 µg/mL	first compound 3 µg/mL
partner 0.06 µg/mL	0.67	0.635	0.0943
partner 0.12 µg/mL	0.591	0.58	0.118

Settings	Bliss interaction score
B. subtilis 168	0.0443
S. aureus DSM 20231 [3]	0.148
S. aureus Newman [4]	0.16
S. pneumoniae D39V	0.0681

O=C(N[C@H](CO)[C@H](O)c1ccc([N+](=O)[O-])cc1)C(Cl)Cl [Chloramphenicol] + COc1ccc(C[C@H](N)C(=O)N[C@H]2[C@@H](O)[C@H](n3cnc4c(N(C)C)ncnc43)O[C@@H]2CO)cc1 [Puromycin]
fitness
Settings	first compound 0.75 µg/mL	first compound 1.5 µg/mL	first compound 3 µg/mL
S. aureus DSM 20231 [1], partner 0.39 µg/mL	0.764	–	0.11
S. aureus DSM 20231 [1], partner 0.78 µg/mL	0.759	0.585	0.0684
S. aureus DSM 20231 [1], partner 1.56 µg/mL	0.782	0.455	–
S. aureus Newman [2], partner 0.39 µg/mL	0.764	0.502	0.145
S. aureus Newman [2], partner 0.78 µg/mL	0.777	0.501	0.121
S. aureus Newman [2], partner 1.56 µg/mL	0.807	0.501	–

fitness, S. aureus DSM 20231 [1], one replicate
Settings	first compound 0.75 µg/mL	first compound 1.5 µg/mL	first compound 3 µg/mL
partner 3.12 µg/mL	0.771	0.231	0.0598
partner 6.24 µg/mL	0.387	–	0.0594

Settings	Bliss interaction score
B. subtilis 168	-0.0629
S. aureus DSM 20231 [3]	0.0724
S. aureus Newman [4]	-0.111
S. pneumoniae D39V	-0.0967

O=C(N[C@H](CO)[C@H](O)c1ccc([N+](=O)[O-])cc1)C(Cl)Cl [Chloramphenicol] + C[C@@H]1O[C@@H]1P(=O)(O)O [Fosfomycin]
fitness
Settings	first compound 0.75 µg/mL	first compound 1.5 µg/mL	first compound 3 µg/mL
S. aureus DSM 20231 [1], partner 0.781 µg/mL	0.633	0.473	0.116
S. aureus DSM 20231 [1], partner 1.562 µg/mL	0.558	0.402	0.0874
S. aureus DSM 20231 [1], partner 3.124 µg/mL	0.436	0.265	0.0652
S. aureus Newman [2], partner 0.781 µg/mL	0.491	0.394	0.117
S. aureus Newman [2], partner 1.562 µg/mL	0.452	0.272	0.0456
S. aureus Newman [2], partner 3.124 µg/mL	0.117	0.0322	0.0343

Settings	Bliss interaction score
B. subtilis 168	0.129
S. aureus DSM 20231 [3]	0.0517
S. aureus Newman [4]	-0.108
S. pneumoniae D39V	0.0635
